In patent US10239887B2, “Positive allosteric modulators of the muscarinic acetylcholine receptor M4” (Vanderbilt University, priority 2016, dated 2019):
In brackets after ≈: the same amount, converted by molar mass.

Assays:
cynomolgus monkey M4 = cynomolgus monkey M4 (Macaca fascicularis, UniProt G7PQB4); test: mAChR M4 cell-based functional assay (calcium flux), cyno M4; conditions: CHO-K1 cells
Human M2 = molecular target: T1, Human M2 (Homo sapiens, UniProt P08172); test: analogous cell-based functional assay using human M2
T1 sequence (P08172 1-466): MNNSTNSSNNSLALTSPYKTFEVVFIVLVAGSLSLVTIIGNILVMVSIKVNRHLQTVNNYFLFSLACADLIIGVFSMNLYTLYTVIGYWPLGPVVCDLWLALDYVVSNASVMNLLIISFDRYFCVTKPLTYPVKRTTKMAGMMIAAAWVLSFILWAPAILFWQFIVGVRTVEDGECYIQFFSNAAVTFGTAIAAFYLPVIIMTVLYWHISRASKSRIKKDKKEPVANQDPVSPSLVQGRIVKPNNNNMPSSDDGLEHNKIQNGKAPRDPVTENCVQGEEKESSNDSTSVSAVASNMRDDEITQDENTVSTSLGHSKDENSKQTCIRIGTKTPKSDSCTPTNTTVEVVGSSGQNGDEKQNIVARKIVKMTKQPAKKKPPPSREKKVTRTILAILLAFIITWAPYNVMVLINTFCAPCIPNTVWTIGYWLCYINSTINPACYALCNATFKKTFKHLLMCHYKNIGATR

[1] = test system: 68 primary molecular targets; test: Eurofins LeadProfilingScreen (binding); conditions: 10 μM (binding); all targets except human adenosine A2a
bacterial = bacterial cytotoxicity assay; format: cell-based; conditions: 0.6-100 μM
[2] = solubility (aqueous, faSSIF, SGF); format: physicochemical
[3] = MDCK-MDR1 permeability and efflux; format: in vitro ADME; conditions: dog, MDCK-MDR1
Method: (§1) Compound 76 was in several in vitro assays to investigate both metabolism and pharmacokinetics. These assays were performed according to known methods as generally described in the following references: Conde-Ceide et al. ACS Med. Chem. Lett. 2015, 6, 716-720; Morris et al. J. Med. Chem. 2014, 57, 10192-10197; and Bubser et al. ACS Chem. Neurosci. 2014, 5, 920-942.

MDCK-MDR1 = MDCK-MDR1 permeability and efflux; format: in vitro ADME; conditions: efflux ratio
Method: as §1

[4] = fraction unbound in plasma, dog; format: in vitro ADME; conditions: read-out: Dog Fu (plasma)
Method: as §1

[5] = fraction unbound in plasma, cyno; format: in vitro ADME; conditions: cynomolgus monkey, read-out: Cyno Fu (plasma)
Method: as §1

intrinsic clearance, rat = format: in vitro ADME
Method: as §1

[6] = intrinsic clearance, cyno; format: in vitro ADME; conditions: cynomolgus monkey
Method: as §1

P450 1A2 = molecular target: T2, P450 1A2 (Homo sapiens, UniProt P05177); test: P450 1A2 inhibition; format: in vitro ADME
T2 sequence (P05177 1-516): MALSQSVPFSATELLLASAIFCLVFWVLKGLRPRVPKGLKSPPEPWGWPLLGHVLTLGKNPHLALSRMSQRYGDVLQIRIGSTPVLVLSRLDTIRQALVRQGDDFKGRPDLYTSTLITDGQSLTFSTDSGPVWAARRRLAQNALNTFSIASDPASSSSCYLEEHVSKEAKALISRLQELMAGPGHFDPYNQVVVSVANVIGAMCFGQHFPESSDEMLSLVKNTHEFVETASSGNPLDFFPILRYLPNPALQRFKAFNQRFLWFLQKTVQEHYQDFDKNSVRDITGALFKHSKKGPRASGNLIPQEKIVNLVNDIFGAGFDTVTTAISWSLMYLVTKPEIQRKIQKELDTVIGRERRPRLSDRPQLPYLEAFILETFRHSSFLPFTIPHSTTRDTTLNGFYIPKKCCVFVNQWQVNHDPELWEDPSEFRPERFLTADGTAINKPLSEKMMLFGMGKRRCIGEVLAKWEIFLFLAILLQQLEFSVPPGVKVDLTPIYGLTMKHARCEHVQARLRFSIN
Method: as §1

in vivo [7] = conditions: rat
in vivo [8] = conditions: dog, plasma
in vivo [9] = conditions: cynomolgus monkey
in vivo DMPK, rat = conditions: 3 mg/kg
in vivo DMPK, dog = conditions: 3 mg/kg
[10] = test system: four strains of Salmonella; test: Eurofins Ames Test; conditions: 5-100 μM
human mAChR M4 = molecular target: T3, human mAChR M4 (Homo sapiens, UniProt P08173); test: mAChR M4 cell-based functional assay (calcium flux), human M4; conditions: Human M4; % ACh maximum at 30 μM
T3 sequence (P08173 1-479): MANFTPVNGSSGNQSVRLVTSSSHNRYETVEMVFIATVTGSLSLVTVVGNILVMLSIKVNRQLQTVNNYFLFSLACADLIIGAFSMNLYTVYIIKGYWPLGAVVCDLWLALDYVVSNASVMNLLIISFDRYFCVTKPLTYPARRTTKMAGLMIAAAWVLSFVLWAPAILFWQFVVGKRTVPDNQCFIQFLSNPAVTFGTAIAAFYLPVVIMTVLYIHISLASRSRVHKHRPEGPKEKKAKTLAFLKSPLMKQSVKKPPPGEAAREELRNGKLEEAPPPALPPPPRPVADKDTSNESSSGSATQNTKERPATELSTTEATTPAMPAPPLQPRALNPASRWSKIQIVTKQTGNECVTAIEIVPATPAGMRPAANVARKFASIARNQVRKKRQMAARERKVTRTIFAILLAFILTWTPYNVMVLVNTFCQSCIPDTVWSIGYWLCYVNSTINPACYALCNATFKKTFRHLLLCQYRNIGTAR

cynomolgus monkey M4, sequence (G7PQB4 1-479): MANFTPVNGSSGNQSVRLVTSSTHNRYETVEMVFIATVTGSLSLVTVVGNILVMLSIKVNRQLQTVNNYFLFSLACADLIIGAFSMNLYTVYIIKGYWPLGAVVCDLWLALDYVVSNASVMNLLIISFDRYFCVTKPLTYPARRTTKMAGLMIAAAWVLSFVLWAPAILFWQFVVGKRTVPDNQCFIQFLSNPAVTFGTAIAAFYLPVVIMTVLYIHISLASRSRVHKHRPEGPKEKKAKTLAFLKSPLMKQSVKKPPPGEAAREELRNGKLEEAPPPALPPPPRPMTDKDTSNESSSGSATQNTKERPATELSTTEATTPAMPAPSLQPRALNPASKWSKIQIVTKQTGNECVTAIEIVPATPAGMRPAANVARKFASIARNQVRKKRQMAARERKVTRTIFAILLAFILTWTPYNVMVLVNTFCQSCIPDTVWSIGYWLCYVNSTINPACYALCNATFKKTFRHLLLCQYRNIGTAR

Structure (SMILES): Cc1nnc2sc3c(NCc4ccc(C(C)(C)O)cc4)ncnc3c2c1C [Compound 76, 2-[4-[[(3,4-Dimethylpyrimido[4′,5′:4,5]thieno[2,3-c]pyridazin-8-yl)amino]methyl]phenyl]propan-2-ol]
- EC50 (cynomolgus monkey M4): 0.12 µM
- Emax (Human M2; Human M2): 48%
- EC50 (Human M2; analogous assay using human M2): 2.8 µM
- inhibition of each target in the LeadProfilingScreen [1]: < 50%
- bacterial cytotoxicity result (bacterial): clean
- solubility ([2]; aqueous medium (pH 7.4), pH 7.4, aqueous buffer): 166 µM (≈ 63 µg/mL)
- SGF ([2]; solubility in SGF): 180 µM
- faSSIF ([2]; solubility in faSSIF): 24 µM
- Papp A→B [3]: 20 ×10⁻⁶ cm/s
- MDCK-MDR1 ER (MDCK-MDR1): 3.1 (Papp A→B:
- fraction unbound [4]: 0.057
- fraction unbound [5]: 0.009
- CLint scaled (intrinsic clearance, rat): 87 mL/min/kg
- CLint scaled [6]: 102 mL/min/kg
- IC50 (P450 1A2): > 30 µM
- Kp (in vivo [7]; brain): 0.31
- Vd (in vivo [7]; plasma): 1 L/kg
- clearance (in vivo [7]; plasma): 4.4 mL/min/kg
- half-life (in vivo [7]; plasma): 3 h
- Vd (in vivo [8]): 1.4 L/kg
- clearance (in vivo [8]): 4.7 mL/min/kg
- half-life (in vivo [8]): 4.2 h
- Kp (in vivo [9]; brain): 0.37
- Kp uu (in vivo [9]; brain): 0.62
- Vd (in vivo [9]; plasma): 0.9 L/kg
- clearance (in vivo [9]; plasma): 5.3 mL/min/kg
- half-life (in vivo [9]; plasma): 4.5 h
- Rat oral F (in vivo DMPK, rat): >100%
- Dog oral F (in vivo DMPK, dog): 54%
- Ames test result [10]: clean
- Cyno oral F (in vivo DMPK, cyno; 3 mg/kg): 44%
- Cyno CSF: plasma Kp (in vivo DMPK, cyno; cynomolgus monkey, in vivo): 0.01
- Cyno CSF: plasma Kp, u (in vivo DMPK, cyno; cynomolgus monkey, in vivo): 1.1
- Emax (human mAChR M4): 86%
